Assay results: US4503147A (priority 1981, dated 1985)
Counter-ions that a name gives are not always drawn. Like-named read-outs stand apart in the source and are kept apart here.

What was measured:
[1] = tested on: monomethylamine-oxidizing enzyme; test: Substrate specificity and Km of the purified monomethylamine-oxidizing enzyme; type: biochemical, Bacillus sp. N - 104 (FERM BP-59); conditions: for Relative activity: substrate concentration 10 mM, activity for monomethylamine taken as 100
Experimental: […] To 1.0 ml of this substrate solution, is added 0.1 ml of an enzyme solution diluted with the same buffer solution and the mixture is subjected to reaction for 10 min. at 30° C. By adding 1 ml of 5N KOH solution, the enzymatic reaction is stopped. By this enzymatic reaction, monomethylamine is oxidatively decomposed to produce formaldehyde, ammonia and hydrogen peroxide. Then, to the reaction mixture is added 1 ml of 0.5 N hydrochloric acid solution containing 0.5% 4-amino-3-hydrazino-5-mercapto-1,2,4-triazole (to be abbreviated as AHMT hereinafter) and the mixture is subjected to reaction for 15 min. at 30° C. To the reaction mixture is added 1 ml of 0.2 N potassium hydroxide solution containing 0.75% KIO4 and the mixture is thoroughly stirred to develop a color. The colored solution is poured into a transparent cell and its absorption at 550 nm is measured to quantitatively determine the above produced formaldehyde.

[2] = tested on: monomethylamine-oxidizing enzyme; type: biochemical, Bacillus sp. N - 104 (FERM BP-59); conditions: pH 9
Experimental: Monomethylamine hydrochloride as substrate is dissolved into 0.1 M KH2 PO4 -Na2 B4 O7 buffer solution (pH 7) and the solution is ordinally adjusted to 1 mM concentration of substrate. To 1.0 ml of this substrate solution, is added 0.1 ml of an enzyme solution diluted with the same buffer solution and the mixture is subjected to reaction for 10 min. at 30° C. By adding 1 ml of 5N KOH solution, the enzymatic reaction is stopped. By this enzymatic reaction, monomethylamine is oxidatively decomposed to produce formaldehyde, ammonia and hydrogen peroxide. Then, to the reaction mixture is added 1 ml of 0.5 N hydrochloric acid solution containing 0.5% 4-amino-3-hydrazino-5-mercapto-1,2,4-triazole (to be abbreviated as AHMT hereinafter) and the mixture is subjected to reaction for 15 min. at 30° C. To the reaction mixture is added 1 ml of 0.2 N potassium hydroxide solution containing 0.75% KIO4 and the mixture is thoroughly stirred to develop a color. The colored solution is poured into a transparent cell and its absorption at 550 nm is measured to quantitatively determine the above produced formaldehyde.

[3] = 1 mM inhibitor, 10 min treatment at 30° C., activity without inhibitor taken as 100
[4] = 5 mM inhibitor, 10 min treatment at 30° C., activity without inhibitor taken as 100

SMILES	Relative activity [1]	further results
NCN [Diaminomethane]	16%	
NCCO [Ethanolamine]	1%	
NC(=O)CI [iodoacetamide]		Residual activity [2, 3]: 2.2%
NNC(N)=O [semicarbazide hydrochloride]		Residual activity [2, 3]: 0%
CCCCN [n-Butylamine]	18%	
NCCc1c[nH]cn1 [Histamine]	1%	
NCCN [Ethylenediamine]	0%	
NO [Hydroxylamine]	0%	
CCN [Ethylamine]	90%	
O=C(O)CI [monoiodoacetic acid]		Residual activity [2]: 34.0%
CC(C)CN [i-Butylamine]	2%	
NCCc1ccc(O)cc1 [Tyramine]	0%	
O=C(O)c1cc[c]([Hg][Cl])cc1 [p-chloromercuribenzoic acid]		Residual activity [2, 3]: 0.7%
NCCCCN [Putrescine]	0%	
c1cnc2c(c1)ccc1cccnc12 [O-phenanthroline]		Residual activity [2, 4]: 70.9%
Oc1cccc2cccnc12 [8-oxyquinoline]		Residual activity [2]: 34.0%
CCN(CC)C(=S)[S-].[Na+] [sodium diethyldithiocarbamate]		Residual activity [2, 4]: 59.3%
CN(C)C [Trimethylamine]	0%	
N=C(N)NCCCCN [Agmatine]	1%	
CC(C)N [i-Propylamine]	0%	
CCCN [n-Propylamine]	60%	
CCCCCCN [n-Hexylamine]	10%	
CN [Monomethylamine]	100%	Km ([1]; pH 9.0): 62 µM
NCc1ccccc1 [Benzylamine]	1%	
CCCCCN [n-Amylamine]	19%	
CNC [Dimethylamine]	0%	
[Cl][Hg][Cl] [HgCl2]		Residual activity [2, 3]: 0%
